Assay results taken from US11420970B1 (NOVARTIS AG, priority 2019, dated 2022).
pIC50: −log10 of the molar value. Where two headings read alike, the source gives them in different places.

What was measured:
NSD2 [1-1365] = NSD2 [1-1365] (Homo sapiens (Human), UniProt O96028); assay: LC-MS/MS-based NSD2 enzymatic assay (SAH production); assay type: biochemical; details: read-out: NSD2 IC50
Outline: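 SAH formed was measured by LC-MS/MS using d4-SAH as internal standard and an SAH calibration curve. Compounds were preincubated 20 min with NSD2 [1-1365] and SAM; mouse-liver nucleosome then started a 90 min room-temperature reaction (8 nM enzyme, 1 μM SAM, 400 nM nucleosome final, pH 8.0), stopped with TFA.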

[1] = tested on: cellular H3K36me2 level in thyroid carcinoma cell line CGTH-W-1 (NSD2 E1099K); assay: H3K36me2 cellular ELISA assay in CGTH-W-1 line; assay type: cell-based; details: Homo sapiens, CGTH-W-1, 72 h, read-out: H3K36me2 ELISA in CGTH-W-1
Procedure: H3K36Me2 Cellular ELISA Assay in CGTH-W-1 Line
An ELISA (enzyme-linked immunosorbent assay) based assay was used to test the ability of candidate compound to reduce cellular H3K36me2 level in thyroid carcinoma cell line CGTH-W-1, carrying NSD2 E1099K gain of function mutation. CGTH-W-1 (DSMZ) cells are maintained in RPM11640 media with 10% FBS and 50 U/ml Penicillin-Streptomycin.
Cells were treated with tested compounds at the desired concentration for 72 hours.
Histone bound plates were washed and blocked with 5% BSA. […] The abundance of H3K36me2 and total H3 was measured by Chemiluminesce on a plate reader. Cell viability was monitored on a parallel seeded plate with CellTiter-Glo reagent (Promega #G7573).

[2] = tested on: cellular H3K36me2 level in multiple myeloma cell line KMS11 (t(4;14)+); assay: H3K36me2 cellular ELISA assay in KMS11-Par line; assay type: cell-based; details: Homo sapiens, KMS-11, ELISA, read-out: H3K36me2 ELISA in KMS11-Par
Outline: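 After 72 h compound exposure, HCl-extracted histones from KMS11 (t(4;14)+) cells were probed by ELISA for H3K36me2 against total H3 with a chemiluminescence read-out. Cells were plated at 1,250/well in Opti-MEM plus B-27 and N2 the day before. A parallel CellTiter-Glo plate tracked viability.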

[3] = NSD2 biochemical activity, class symbols
[4] = KMS11-Par line (t(4;14)+), 72 hours treatment

Sequence of NSD2 [1-1365] (O96028 whole entry): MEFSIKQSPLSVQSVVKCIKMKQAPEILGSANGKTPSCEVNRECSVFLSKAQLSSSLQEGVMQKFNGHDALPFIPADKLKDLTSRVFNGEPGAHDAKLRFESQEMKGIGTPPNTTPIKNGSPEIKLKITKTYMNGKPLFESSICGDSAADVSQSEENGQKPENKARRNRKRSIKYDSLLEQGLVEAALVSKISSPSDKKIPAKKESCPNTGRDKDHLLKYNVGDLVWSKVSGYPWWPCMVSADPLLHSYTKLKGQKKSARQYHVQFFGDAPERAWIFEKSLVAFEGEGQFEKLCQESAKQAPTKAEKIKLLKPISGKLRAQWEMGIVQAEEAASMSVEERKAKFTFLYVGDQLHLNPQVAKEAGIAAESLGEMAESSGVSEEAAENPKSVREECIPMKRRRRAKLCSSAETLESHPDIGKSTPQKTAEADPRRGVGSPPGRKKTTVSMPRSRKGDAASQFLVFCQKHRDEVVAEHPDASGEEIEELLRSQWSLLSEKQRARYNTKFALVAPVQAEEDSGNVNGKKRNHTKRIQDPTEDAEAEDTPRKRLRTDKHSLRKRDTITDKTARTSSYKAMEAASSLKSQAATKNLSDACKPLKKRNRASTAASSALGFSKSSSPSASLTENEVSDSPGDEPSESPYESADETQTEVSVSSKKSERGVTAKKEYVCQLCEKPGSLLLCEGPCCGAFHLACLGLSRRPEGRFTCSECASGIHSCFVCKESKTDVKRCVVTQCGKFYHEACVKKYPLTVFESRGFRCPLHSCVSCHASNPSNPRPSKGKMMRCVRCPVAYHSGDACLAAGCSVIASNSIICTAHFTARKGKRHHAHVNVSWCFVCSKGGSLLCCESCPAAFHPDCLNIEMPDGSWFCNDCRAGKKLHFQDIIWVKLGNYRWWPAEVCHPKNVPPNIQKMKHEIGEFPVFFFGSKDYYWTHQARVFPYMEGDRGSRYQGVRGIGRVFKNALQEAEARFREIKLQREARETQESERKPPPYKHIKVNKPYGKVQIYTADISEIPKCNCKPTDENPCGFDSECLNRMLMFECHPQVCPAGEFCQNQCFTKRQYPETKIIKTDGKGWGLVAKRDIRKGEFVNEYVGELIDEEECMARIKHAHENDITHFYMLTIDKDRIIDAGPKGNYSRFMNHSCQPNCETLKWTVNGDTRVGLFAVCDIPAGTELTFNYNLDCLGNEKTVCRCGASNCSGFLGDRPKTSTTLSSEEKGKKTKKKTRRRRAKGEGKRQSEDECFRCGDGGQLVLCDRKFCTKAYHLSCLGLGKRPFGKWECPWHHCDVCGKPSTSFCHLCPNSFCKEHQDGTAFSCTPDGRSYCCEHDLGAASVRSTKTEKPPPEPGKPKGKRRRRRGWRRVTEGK

COc1c(F)cc(-c2cc(Cn3cnc4c(N)ncnc43)c(N3CCC[C@](N)(C(O)C(F)F)C3)cn2)cc1F (stereo in doubt) [Example 164, (R)-1-((R)-3-amino-1-(4-((6-amino-9H-purin-9-yl)methyl)-6-(3,5-difluoro-4-methoxyphenyl)pyridin-3-yl)piperidin-3-yl)-2,2-difluoroethan-1-ol]
pIC50 (NSD2 [1-1365]; [3]): 8.00 to 9.00
pIC50 [1]: 6.89
pIC50 [2, 4]: 5.97

COc1c(F)cc(-c2cc(Cn3cnc4c(N)ncnc43)c(N3CCC[C@](N)(C(O)C(F)F)C3)cn2)cc1F (stereo in doubt) [Example 165, (S)-1-((R)-3-amino-1-(4-((6-amino-9H-purin-9-yl)methyl)-6-(3,5-difluoro-4-methoxyphenyl)pyridin-3-yl)piperidin-3-yl)-2,2-difluoroethan-1-ol]
pIC50 (NSD2 [1-1365]; [3]): 8.00 to 9.00
pIC50 [1]: 6.66
pIC50 [2, 4]: 5.97

COc1ccc(-c2cc(Cn3cnc4c(N)ncnc43)c(N3CCC[C@](N)(C(O)C(F)F)C3)cn2)c(C(F)(F)F)c1 (stereo in doubt) [Example 166, (S)-1-((R)-3-amino-1-(4-((6-amino-9H-purin-9-yl)methyl)-6-(4-methoxy-2-(trifluoromethyl)phenyl)pyridin-3-yl)piperidin-3-yl)-2,2-difluoroethan-1-ol]
pIC50 (NSD2 [1-1365]; [3]): 8.00 to 9.00
pIC50 [1]: 6.36
pIC50 [2, 4]: 5.07

COc1ccc(-c2cc(Cn3cnc4c(N)ncnc43)c(N3CCC[C@](N)(C(O)C(F)F)C3)cn2)c(C(F)(F)F)c1 (stereo in doubt) [Example 167, (R)-1-((R)-3-amino-1-(4-((6-amino-9H-purin-9-yl)methyl)-6-(4-methoxy-2-(trifluoromethyl)phenyl)pyridin-3-yl)piperidin-3-yl)-2,2-difluoroethan-1-ol]
pIC50 (NSD2 [1-1365]): 6.00 to 8.00
pIC50 [1]: 6.25
pIC50 ([2]; KMS11-Par line, 72 hours): 5.21

Nc1ncnc2c1ncn2Cc1cc(-c2ccc(F)c(F)c2)ncc1N1CC[C@@H](O)[C@@H](N)C1 [Example 3, (3S,4R)-3-amino-1-(4-((6-amino-9H-purin-9-yl)methyl)-6-(3,4-difluorophenyl)pyridin-3-yl)piperidin-4-ol]
pIC50 (NSD2 [1-1365]; [3]): 6.00 to 8.00
pIC50 [1]: 5.08
pIC50 [2, 4]: 4.48

Cn1ccc(C[C@@]2(N)CCCN(c3cnc(-c4ccc(F)c(F)c4)cc3Cn3cnc4c(N)ncnc43)C2)n1 [Example 56, (S)-9-((5-(3-amino-3-((1-methyl-1H-pyrazol-3-yl)methyl)piperidin-1-yl)-2-(3,4-difluorophenyl)pyridin-4-yl)methyl)-9H-purin-6-amine]
pIC50 (NSD2 [1-1365]; [3]): 8.00 to 9.00
pIC50 [1]: 6.56
pIC50 [2, 4]: 6.63

CNC(=O)[C@@]1(N)CCCN(c2cnc(-c3cccc(F)c3)cc2Cn2cnc3c(N)ncnc32)C1 [Example 78, (R)-3-amino-1-(4-((6-amino-9H-purin-9-yl)methyl)-6-(3-fluorophenyl)pyridin-3-yl)-N-methylpiperidine-3-carboxamide]
pIC50 (NSD2 [1-1365]; [3]): 8.00 to 9.00
pIC50 [1]: 7.92
pIC50 [2, 4]: 7.11

Nc1ncnc2c1ncn2Cc1cc(-c2ccc(F)c(F)c2)ncc1N1CCCC(N)(C(=O)NC2CCOC2)C1 (stereo not shown) [Example 85, 3-amino-1-(4-((6-amino-9H-purin-9-yl)methyl)-6-(3,4-difluorophenyl)pyridin-3-yl)-N-(tetrahydrofuran-3-yl)piperidine-3-carboxamide]
pIC50 (NSD2 [1-1365]; [3]): 6.00 to 8.00
pIC50 [1]: 5.68
pIC50 [2, 4]: 5.19

Nc1ncnc2c1ncn2Cc1cc(-c2ccc(F)c(F)c2)ncc1N1CCCC(N)(C(=O)N2CCCCC2)C1 (stereo not shown) [Example 86, (3-amino-1-(4-((6-amino-9H-purin-9-yl)methyl)-6-(3,4-difluorophenyl)pyridin-3-yl)piperidin-3-yl)(piperidin-1-yl)methanone]
pIC50 (NSD2 [1-1365]; [3]): 6.00 to 8.00
pIC50 [1]: 5.06
pIC50 [2, 4]: 4.48

CC1CCCCN1C(=O)C1(N)CCCN(c2cnc(-c3ccc(F)c(F)c3)cc2Cn2cnc3c(N)ncnc32)C1 (stereo not shown) [Example 87, (3-amino-1-(4-((6-amino-9H-purin-9-yl)methyl)-6-(3,4-difluorophenyl)pyridin-3-yl)piperidin-3-yl)(2-methylpiperidin-1-yl)methanone]
pIC50 (NSD2 [1-1365]; [3]): 6.00 to 8.00
pIC50 [1]: 5.80
pIC50 [2, 4]: 5.19

CC(C)C(C)C(=O)C1(N)CCCN(c2cnc(-c3ccc(F)c(F)c3)cc2Cn2cnc3c(N)ncnc32)C1 (stereo not shown) [Example 89, 1-(3-amino-1-(4-((6-amino-9H-purin-9-yl)methyl)-6-(3,4-difluorophenyl)pyridin-3-yl)piperidin-3-yl)-2,3-dimethylbutan-1-one]
pIC50 (NSD2 [1-1365]; [3]): 6.00 to 8.00
pIC50 [1]: 6.61
pIC50 [2, 4]: 6.16

COc1ccc(-c2cc(Cn3cnc4c(N)ncnc43)c(N3CCC[C@](N)([C@@H](C)O)C3)cn2)cc1F [Example 90, (R)-1-((R)-3-amino-1-(4-((6-amino-9H-purin-9-yl)methyl)-6-(3-fluoro-4-methoxyphenyl)pyridin-3-yl)piperidin-3-yl)ethan-1-ol]
pIC50 (NSD2 [1-1365]; [3]): 8.00 to 9.00
pIC50 [1]: 6.62
pIC50 [2, 4]: 6.36

Nc1ncnc2c1ncn2Cc1cc(-c2ccc(F)c(F)c2)ncc1N1CCC[C@](N)([C@H](F)c2ccccn2)C1 [Example 91, 9-((5-((R)-3-amino-3-((S)-fluoro(pyridin-2-yl)methyl)piperidin-1-yl)-2-(3,4-difluorophenyl)pyridin-4-yl)methyl)-9H-purin-6-amine]
pIC50 (NSD2 [1-1365]; [3]): 8.00 to 9.00
pIC50 [1]: 6.92
pIC50 [2, 4]: 6.05

COc1ccc(-c2cc(Cn3cnc4c(N)ncnc43)c(N3CCC[C@](N)([C@H](C)O)C3)cn2)cc1F [Example 92, (S)-1-((R)-3-amino-1-(4-((6-amino-9H-purin-9-yl)methyl)-6-(3-fluoro-4-methoxyphenyl)pyridin-3-yl)piperidin-3-yl)ethan-1-ol]
pIC50 (NSD2 [1-1365]; [3]): 8.00 to 9.00
pIC50 [1]: 5.68
pIC50 [2, 4]: 5.31

Nc1ncnc2c1ncn2Cc1cc(-c2ccc(F)c(F)c2)ncc1N1CCCC(N)(c2ccncn2)C1 (stereo not shown) [Example 255, 9-((5-(3-amino-3-(pyrimidin-4-yl)piperidin-1-yl)-2-(3,4-difluorophenyl)pyridin-4-yl)methyl)-9H-purin-6-amine]
pIC50 (NSD2 [1-1365]): 6.00 to 8.00
pIC50 [1]: 6.63

Cc1cncc([C@@]2(N)CCCN(c3cnc(-c4ccc(F)c(F)c4)cc3Cn3cnc4c(N)ncnc43)C2)n1 [Example 258, (R)-9-((5-(3-amino-3-(6-methylpyrazin-2-yl)piperidin-1-yl)-2-(3,4-difluorophenyl)pyridin-4-yl)methyl)-9H-purin-6-amine]
pIC50 (NSD2 [1-1365]): 6.00 to 8.00
pIC50 [1]: 6.36

Nc1ncnc2c1ncn2Cc1cc(-c2ccc(F)cc2)ncc1N1CCCC(N)(c2csc(Cl)n2)C1 (stereo not shown) [Example 281, 9-((5-(3-amino-3-(2-chlorothiazol-4-yl)piperidin-1-yl)-2-(4-fluorophenyl)pyridin-4-yl)methyl)-9H-purin-6-amine]
pIC50 (NSD2 [1-1365]): 6.00 to 8.00
pIC50 [1]: 6.08

Cn1cc(C2(N)CCCN(c3cnc(-c4ccc(F)c(F)c4)cc3Cn3cnc4c(N)ncnc43)C2)nn1 (stereo not shown) [Example 282, 9-((5-(3-amino-3-(1-methyl-1H-1,2,3-triazol-4-yl)piperidin-1-yl)-2-(3,4-difluorophenyl)pyridin-4-yl)methyl)-9H-purin-6-amine]
pIC50 (NSD2 [1-1365]): 6.00 to 8.00
pIC50 [1]: 5.82

COc1ccc(-c2cc(Cn3cnc4c(N)ncnc43)c(N3C[C@H](N)C[C@@H](CF)C3)cn2)cc1F [Example 306, 9-((5-((3R,5R)-3-amino-5-(fluoromethyl)piperidin-1-yl)-2-(3-fluoro-4-methoxyphenyl)pyridin-4-yl)methyl)-9H-purin-6-amine]
pIC50 (NSD2 [1-1365]): 6.00 to 8.00
pIC50 [1]: 5.19
